Measurements: ChEMBL document CHEMBL1201862, “PubChem BioAssay data set” (2004)
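All cell lines were grown in 96-well plates and treated with compound for 48 hours. The concentration for 50% growth inhibition is given as GI50.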 Active and inactive are the calls of the source. No stated cut-off is given here; in the data, active = GI50 up to about 1.1 µM and inactive = higher.

Key:
Experiment in all cases: NCI-60 cell line screen, 48 h
NCI-H226 = tested on: NCI-H226
SK-OV-3 = tested on: SK-OV-3
UACC-62 = tested on: UACC-62
A549 = tested on: A549
KM12 = tested on: KM12
MDA-MB-231 = tested on: MDA-MB-231
COLO 205 = tested on: COLO 205
Malme-3M = tested on: Malme-3M
DU-145 = tested on: DU-145
SF-295 = tested on: SF-295
NCI/ADR-RES = tested on: NCI/ADR-RES
HOP-62 = tested on: HOP-62
NCI-H522 = tested on: NCI-H522
HCT-116 = tested on: HCT-116
OVCAR-3 = tested on: OVCAR-3
SNB-19 = tested on: SNB-19
U-251 = tested on: U-251
MOLT-4 = tested on: MOLT-4
CCRF-CEM = tested on: CCRF-CEM

Measured: GI50

COc1cccc(CSCC(=O)O)c1
inactive: NCI-H226 > 100 µM | SK-OV-3 > 100 µM | UACC-62 > 100 µM | A549 > 100 µM | KM12 > 100 µM | MDA-MB-231 > 100 µM | COLO 205 > 100 µM | Malme-3M > 100 µM | DU-145 > 100 µM | SF-295 > 100 µM | NCI/ADR-RES > 100 µM | HOP-62 > 100 µM | NCI-H522 > 100 µM | HCT-116 > 100 µM | OVCAR-3 > 100 µM | SNB-19 > 100 µM | U-251 > 100 µM

CCC(C(=O)C(=O)OC)P1(=O)OC(C)(C)CN1C(C)(C)C (configuration not stated)
inactive: NCI-H226 > 100 µM | MOLT-4 > 100 µM | SK-OV-3 > 100 µM | UACC-62 22.6 µM | A549 > 100 µM | KM12 > 100 µM | MDA-MB-231 > 100 µM | COLO 205 > 100 µM | Malme-3M > 100 µM | DU-145 > 100 µM | SF-295 > 100 µM | NCI/ADR-RES > 100 µM | HOP-62 > 100 µM | HCT-116 > 100 µM | OVCAR-3 > 100 µM | SNB-19 > 100 µM | U-251 > 100 µM

CC(=O)CCN1CC2CN=NC2(C#N)C1 (configuration not stated)
inactive: NCI-H226 20.7 µM | CCRF-CEM 15.9 µM | MOLT-4 14.7 µM | UACC-62 > 100 µM | A549 > 100 µM | KM12 > 100 µM | MDA-MB-231 > 100 µM | COLO 205 36.2 µM | Malme-3M 69.7 µM | DU-145 > 100 µM | SF-295 > 100 µM | NCI/ADR-RES > 100 µM | HOP-62 > 100 µM | NCI-H522 1.79 µM | HCT-116 34 µM | OVCAR-3 > 100 µM | SNB-19 > 100 µM | U-251 > 100 µM

COc1cc(CNc2nc3cc(C(F)(F)F)ccc3nc2C)cc(OC)c1OC
inactive: NCI-H226 > 10 µM | CCRF-CEM 20.3 µM | MOLT-4 10.9 µM | UACC-62 7.96 µM | A549 28.4 µM | KM12 15.9 µM | MDA-MB-231 14.5 µM | COLO 205 12.8 µM | Malme-3M 17.5 µM | DU-145 26.4 µM | SF-295 19.1 µM | NCI/ADR-RES > 10 µM | HOP-62 24.3 µM | NCI-H522 18.3 µM | HCT-116 19.3 µM | OVCAR-3 25.2 µM | SNB-19 35.1 µM | U-251 15.3 µM

Fc1cc2nc3n(c2cc1F)C(c1c(Cl)cccc1Cl)SC3 (configuration not stated)
inactive: NCI-H226 24.7 µM | MOLT-4 24.4 µM | SK-OV-3 16.5 µM | UACC-62 12.6 µM | A549 14.9 µM | KM12 13.4 µM | MDA-MB-231 18.8 µM | COLO 205 18.7 µM | Malme-3M 17.6 µM | DU-145 17.5 µM | SF-295 13.4 µM | NCI/ADR-RES 16.1 µM | HOP-62 16 µM | NCI-H522 16.9 µM | HCT-116 12.6 µM | OVCAR-3 13 µM | SNB-19 14 µM | U-251 17.1 µM

COc1cccc(CCNc2c(C#N)c3n(c4ccccc4[n+]3C)c3ncccc23)c1
inactive: NCI-H226 20.9 µM | MOLT-4 2.55 µM | SK-OV-3 20.3 µM | UACC-62 20.8 µM | A549 1.82 µM | KM12 2 µM | MDA-MB-231 4.52 µM | COLO 205 4.93 µM | Malme-3M 17.5 µM | DU-145 5.42 µM | SF-295 1.69 µM | NCI/ADR-RES 6.93 µM | HOP-62 17.5 µM | NCI-H522 4.16 µM | HCT-116 1.77 µM | OVCAR-3 19.6 µM | SNB-19 5.9 µM | U-251 2.37 µM

N#CCCN(CCC#N)c1ccc(/C=C2\N=C(c3ccccc3)N(NC(=O)c3ccncc3)C2=O)cc1
inactive: NCI-H226 > 100 µM | MOLT-4 > 100 µM | SK-OV-3 > 100 µM | UACC-62 > 100 µM | A549 > 100 µM | KM12 > 100 µM | MDA-MB-231 > 100 µM | COLO 205 > 100 µM | DU-145 > 100 µM | SF-295 > 100 µM | NCI/ADR-RES > 100 µM | HOP-62 > 100 µM | HCT-116 > 100 µM | OVCAR-3 > 100 µM | SNB-19 > 100 µM | U-251 > 100 µM

COc1cc2c(cc1O)C1Cc3ccc(OC)c(O)c3C[N+]1(C)CC2 (configuration not stated)
inactive: NCI-H226 > 100 µM | CCRF-CEM 45 µM | MOLT-4 > 100 µM | SK-OV-3 > 100 µM | UACC-62 > 100 µM | A549 > 100 µM | KM12 > 100 µM | MDA-MB-231 > 100 µM | COLO 205 > 100 µM | Malme-3M > 100 µM | DU-145 > 100 µM | SF-295 > 100 µM | NCI/ADR-RES > 100 µM | HOP-62 > 100 µM | HCT-116 > 100 µM | SNB-19 > 100 µM | U-251 > 100 µM

C[C@@H]1CC[C@@]2(C)C(C(=O)O)=CCCC2[C@@]1(C)CC(=O)c1ccoc1 (some centres not stated)
inactive: NCI-H226 > 25 µM | CCRF-CEM > 25 µM | MOLT-4 > 25 µM | SK-OV-3 > 25 µM | UACC-62 > 25 µM | A549 > 25 µM | KM12 > 25 µM | MDA-MB-231 > 25 µM | COLO 205 > 25 µM | DU-145 > 25 µM | SF-295 > 25 µM | NCI/ADR-RES > 25 µM | NCI-H522 > 25 µM | HCT-116 > 25 µM | OVCAR-3 > 25 µM | SNB-19 > 25 µM | U-251 > 25 µM

O=C1[C@H](O)[C@@H]2C(O)O[C@H]3[C@@H]2N1C[C@H]3[Si](c1ccccc1)(c1ccccc1)c1ccccc1 (some centres not stated)
inactive: NCI-H226 > 100 µM | MOLT-4 > 100 µM | SK-OV-3 > 100 µM | UACC-62 > 100 µM | A549 > 100 µM | KM12 > 100 µM | MDA-MB-231 > 100 µM | COLO 205 > 100 µM | DU-145 > 100 µM | SF-295 > 100 µM | NCI/ADR-RES > 100 µM | HOP-62 > 100 µM | HCT-116 > 100 µM | OVCAR-3 > 100 µM | SNB-19 > 100 µM | U-251 > 100 µM

COc1ccc2c(c1OC)C(Br)CCC(Br)(Br)C2=O (configuration not stated)
inactive: NCI-H226 14 µM | MOLT-4 1.75 µM | SK-OV-3 16.4 µM | UACC-62 14.6 µM | A549 13.6 µM | KM12 16.3 µM | MDA-MB-231 16.3 µM | COLO 205 3.02 µM | Malme-3M 10.7 µM | DU-145 12.4 µM | SF-295 17.6 µM | NCI/ADR-RES 14.1 µM | HOP-62 18.9 µM | NCI-H522 1.58 µM | HCT-116 4.9 µM | OVCAR-3 15.8 µM | SNB-19 15.5 µM | U-251 16.7 µM

CC1=C2C(=O)O[C@@H](c3ccoc3)[C@]2(C)CCC1=O [FRAXINELLONONE]
inactive: NCI-H226 > 100 µM | CCRF-CEM > 100 µM | MOLT-4 > 100 µM | SK-OV-3 > 100 µM | UACC-62 > 100 µM | A549 > 100 µM | KM12 > 100 µM | MDA-MB-231 > 100 µM | COLO 205 > 100 µM | DU-145 > 100 µM | SF-295 > 100 µM | NCI/ADR-RES > 100 µM | HOP-62 > 100 µM | HCT-116 > 100 µM | OVCAR-3 > 100 µM | SNB-19 > 100 µM | U-251 > 100 µM
